Key:
[1] = test system: hepatoma cell line Hep G2; assay: cell proliferation, Alamar blue, Hep G2; assay type: cell-based; details: Hep G2, 20 μM, FIG. 3B (n=21, p<0.001 for C26)
Method: (§1) The effects of IGF-API, API and C26 on cell proliferation were also evaluated using the art-established Alamar blue technique developed for hematopoietic cells or endothelial cells (DiFalco, et al. (1997) Biochem. J. 326:407-13; DiFalco & Congote (2002) Cytokine 18 (1):51-60; Sandoval, et al. (2002) supra). Five thousand cells per well were plated in 96-well plates and grown over night in complete cell culture medium. The cells were subsequently starved for one day in serum-free medium supplemented with 5 μg/mL bovine transferrin and 200 μg/mL fatty-acid free, tissue culture-tested, bovine serum albumin and incubated for two days in the presence of the API derivatives indicated. For experiments with the hepatoma cell line, Hep G2, only 3000 cells were plated per well.
(§2) Cell proliferation with EGF and C26 was also analysed for keratinocytes and Hep G2 cells. The number of experiments using keratinocytes with EGF was five, and 10 to 11 with C26. The number of experiments using Hep G2 with EGF and C26 was five, except for 20 nM EGF (n=8, P<0.05, paired t-test) and for 20 μM C26 (n=21, p<0.001, paired t-test and Student-Newman-Keuls test). All other P values were according to the Student-Newman-Keul multiple comparisons test.

[2] = test system: LLC-PK1 cells, a porcine kidney epithelial cell line; assay: in vitro wound healing, monolayer of kidney epithelial cells; assay type: cell-based; details: FIG. 1A
Method: Wound healing was measured using an art-established monolayer cell culture method (Nwomeh, et al. (1998) supra). Cells to be studied were plated in 48-well tissue culture plates at a cell density appropriate for obtaining confluent monolayers after one day in culture. Circular wounds were made in the center of the wells by placing a siliconized 200 μL tip into the well and lifting the cells from the plastic by applying suction. The successful creation of wounds was analysed using a phase contrast microscope. Cells were subsequently treated with control media or media containing the factors to be tested. The size of the wounds was immediately recorded for each well. […] After one or two days in culture (depending on the cells studied), the size of the wounds was measured again. Wound dimensions were evaluated with a Leica MZFL11 stereo microscope. Computer images of the wounds were recorded with imaging software and contours of each wound before and after treatment were traced manually. Collections of contours for all wounds were converted to BMP files and quantitated using the Band-Leader program. The results were expressed as % reduction of wounds taking as 100% the reduction obtained in control cell cultures. […] In these experiments, wound closure was being analysed, independent of the mechanism involved. […]

human skin keratinocytes [3] = assay: cell proliferation, Alamar blue, keratinocytes; assay type: cell-based
Method: as §1, §2

[4] = test system: human skin fibroblast cultures; assay: cell proliferation, Alamar blue, skin fibroblasts; assay type: cell-based; details: two days, FIG. 2B
Method: as §1

kidney epithelial cells = assay: cell proliferation, Alamar blue, kidney epithelial cells; assay type: cell-based, porcine; details: two days, FIG. 2A
Method: as §1

[5] = test system: primary human skin fibroblasts; assay: in vitro wound healing, monolayer of skin fibroblasts; assay type: cell-based; details: FIG. 1B; for wound reduction: serum-free medium, two days
Method: (§3) Wound healing was measured using an art-established monolayer cell culture method (Nwomeh, et al. (1998) supra). Cells to be studied were plated in 48-well tissue culture plates at a cell density appropriate for obtaining confluent monolayers after one day in culture. Circular wounds were made in the center of the wells by placing a siliconized 200 μL tip into the well and lifting the cells from the plastic by applying suction. The successful creation of wounds was analysed using a phase contrast microscope. Cells were subsequently treated with control media or media containing the factors to be tested. The size of the wounds was immediately recorded for each well. The wounds were large enough to allow for a long-term incubation thereby improving the accuracy of the determinations. After one or two days in culture (depending on the cells studied), the size of the wounds was measured again. Wound dimensions were evaluated with a Leica MZFL11 stereo microscope. Computer images of the wounds were recorded with imaging software and contours of each wound before and after treatment were traced manually. Collections of contours for all wounds were converted to BMP files and quantitated using the Band-Leader program. The results were expressed as % reduction of wounds taking as 100% the reduction obtained in control cell cultures. No change corresponded to 0%, whereas complete closure corresponded to 100%. This system works well with close monitoring of cell densities. To prevent excess cell growth, the incubations were performed in serum-free medium supplemented with a single protein, transferrin (5 μg/mL). The absence of serum slowed down the healing process (one day in LLC-PK1 cells, two days in all other cultures), but reflected more accurately the situation likely to prevail in topical applications in vivo. Wound closure depends on the migration of cells at the sites of the wound and on cell proliferation. In these experiments, wound closure was being analysed, independent of the mechanism involved.
Cells analysed in the in vitro assay disclosed herein included monolayers of LLC-PK1 cells, a porcine kidney epithelial cell line used as an experimental system of wound healing for acute renal failure (Sponsel, et al. (1994) supra); monolayers of primary human skin fibroblasts; and monolayers of human skin keratinocytes. […] This made measurements of keratinocyte wound closure particularly difficult and time consuming. According, wound closure measurements of a cross created with two perpendicular cell lesions was particularly effective for analysing human skin keratinocytes (Sponsel, et al. (1994) supra).

human skin keratinocytes [6] = assay: in vitro wound healing, monolayer of skin keratinocytes; assay type: cell-based; details: FIG. 1C
Method: as §3, with “The absence of serum slowed down the healing process (one day in LLC-PK1 cells, two days in all other cultures), but reflected more accurately the situation likely to prevail in topical applications in vivo. Wound closure depends on the migration of cells at the sites of the wound and on cell proliferation.” left out
Cells analysed in the in vitro assay disclosed herein included monolayers of LLC-PK1 cells, a porcine kidney epithelial cell line used as an experimental system of wound healing for acute renal failure (Sponsel, et al. (1994) supra); monolayers of primary human skin fibroblasts; and monolayers of human skin keratinocytes. […]

Substance	cell proliferation [1]	concentration at which effective/active in wound reduction [2]	cell proliferation compared to EGF (human skin keratinocytes [3]; equivalent concentrations of EGF, FIG. 3A)	cell proliferation (human skin keratinocytes [3]; two days, FIG. 2C)	cell proliferation [4]	cell proliferation (kidney epithelial cells)	concentration with significant effect on wound reduction [5]	wound reduction [5]	wound reduction (human skin keratinocytes [6])	concentration with effect on wound reduction (human skin keratinocytes [6])
C26: small peptide corresponding to the last 26 amino acids of API (SEQ ID NO:2) (PFVFLMIEQNTKSPLFMGKVVNPTQK)	significantly increased cell proliferation	32 nM	higher than the effects of equivalent concentrations of epidermal growth factor	marginally stimulated cell proliferation	marginally stimulated cell proliferation	marginally stimulated cell proliferation	8 µM	significant, but lower than the effects obtained with IGF-API	no significant effect	
API: alpha-1 proteinase inhibitor, also known as alpha-1-antitrypsin, the major physiological inhibitor of neutrophil elastase		0.16 nM					0.02 µM	significant, but lower than the effects obtained with IGF-API	marginal, but significant effect	8 nM
